In the supplement of paper PMC4932681:

Tests used:
MCF-7 [1] = assay: relative IC50 (midpoint of fitted logistic curve, plateau may be below 50% inhibition; CellTiter-Glo viability); higher = less potent; conditions: 72 h
Method in brief: (§1)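 After seeding into 384-well plates with library drugs at five concentrations spanning a 10 000-fold range, breast cancer cell lines and their resistant derivatives were incubated 72 h at 37 °C. Resistant lines received medium with 1 μM of the selecting drug. CellTiter-Glo signal was read on a PHERAstar and scaled to vehicle-only and positive controls. Drug sensitivity score, relative IC50 (the curve midpoint) and top-dose inhibition came from logistic fits run in the Breeze pipeline.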

BT-474 Tam2 [2] = assay: as above; conditions: 4-OH-tamoxifen in medium 1 µM; 72 h
Method in brief: as §1

ZR-75-1 [3] = assay: as above; conditions: 72 h
Method in brief: as §1

BT-474 Tam1 [4] = assay: as above; conditions: 4-OH-tamoxifen in medium 1 µM; 72 h
Method in brief: as §1

T-47D Tam2 [5] = assay: as above; conditions: 4-OH-tamoxifen in medium 1 µM; 72 h
Method in brief: as §1

MCF-7 Tam1 [6] = assay: as above; conditions: 4-OH-tamoxifen in medium 1 µM; 72 h
Method in brief: as §1

ZR-75-1 Tam1 [7] = assay: as above; conditions: 4-OH-tamoxifen in medium 1 µM; 72 h
Method in brief: as §1

T-47D Tam1 [8] = assay: as above; conditions: 4-OH-tamoxifen in medium 1 µM; 72 h
Method in brief: as §1

BT-474 [9] = assay: as above; conditions: 72 h
Method in brief: as §1

T-47D [10] = assay: as above; conditions: 72 h
Method in brief: as §1

ZR-75-1 Tam2 [11] = assay: as above; conditions: 4-OH-tamoxifen in medium 1 µM; 72 h
Method in brief: as §1

MCF-7 [12] = assay: drug sensitivity score (DSS) (DSS (dimensionless)); higher = more sensitive; extreme values may be limits of the assay; conditions: 72 h
Method in brief: as §1

BT-474 Tam2 [13] = assay: as above; conditions: 4-OH-tamoxifen in medium 1 µM; 72 h
Method in brief: as §1

ZR-75-1 [14] = assay: as above; conditions: 72 h
Method in brief: as §1

BT-474 Tam1 [15] = assay: as above; conditions: 4-OH-tamoxifen in medium 1 µM; 72 h
Method in brief: as §1

T-47D Tam2 [16] = assay: as above; conditions: 4-OH-tamoxifen in medium 1 µM; 72 h
Method in brief: as §1

MCF-7 Tam1 [17] = assay: as above; conditions: 4-OH-tamoxifen in medium 1 µM; 72 h
Method in brief: as §1

ZR-75-1 Tam1 [18] = assay: as above; conditions: 4-OH-tamoxifen in medium 1 µM; 72 h
Method in brief: as §1

T-47D Tam1 [19] = assay: as above; conditions: 4-OH-tamoxifen in medium 1 µM; 72 h
Method in brief: as §1

BT-474 [20] = assay: as above; conditions: 72 h
Method in brief: as §1

T-47D [21] = assay: as above; conditions: 72 h
Method in brief: as §1

ZR-75-1 Tam2 [22] = assay: as above; conditions: 4-OH-tamoxifen in medium 1 µM; 72 h
Method in brief: as §1

relative IC50 (MCF-7 [1]; 4-OH-tamoxifen in medium 0 µM) [nM]	relative IC50 (MCF-7 [1]; 4-OH-tamoxifen in medium 1 µM) [nM]	relative IC50 (BT-474 Tam2 [2]) [nM]	relative IC50 (BT-474 Tam1 [4]) [nM]	relative IC50 (T-47D Tam2 [5]) [nM]	relative IC50 (MCF-7 Tam1 [6]) [nM]	relative IC50 (T-47D Tam1 [8]) [nM]	relative IC50 (BT-474 [9]; 4-OH-tamoxifen in medium 0 µM) [nM]	relative IC50 (BT-474 [9]; 4-OH-tamoxifen in medium 1 µM) [nM]	relative IC50 (T-47D [10]; 4-OH-tamoxifen in medium 0 µM) [nM]	relative IC50 (T-47D [10]; 4-OH-tamoxifen in medium 1 µM) [nM]	Compound	relative IC50 (ZR-75-1 [3]; 4-OH-tamoxifen in medium 0 µM) [nM]	relative IC50 (ZR-75-1 [3]; 4-OH-tamoxifen in medium 1 µM) [nM]	relative IC50 (ZR-75-1 Tam1 [7]) [nM]	relative IC50 (ZR-75-1 Tam2 [11]) [nM]	drug sensitivity score (MCF-7 [12]; 4-OH-tamoxifen in medium 0 µM)	drug sensitivity score (MCF-7 [12]; 4-OH-tamoxifen in medium 1 µM)	drug sensitivity score (BT-474 Tam2 [13])	drug sensitivity score (ZR-75-1 [14]; 4-OH-tamoxifen in medium 0 µM)	drug sensitivity score (ZR-75-1 [14]; 4-OH-tamoxifen in medium 1 µM)	drug sensitivity score (BT-474 Tam1 [15])	drug sensitivity score (T-47D Tam2 [16])	drug sensitivity score (MCF-7 Tam1 [17])	drug sensitivity score (ZR-75-1 Tam1 [18])	drug sensitivity score (T-47D Tam1 [19])	drug sensitivity score (BT-474 [20]; 4-OH-tamoxifen in medium 0 µM)	drug sensitivity score (BT-474 [20]; 4-OH-tamoxifen in medium 1 µM)	drug sensitivity score (T-47D [21]; 4-OH-tamoxifen in medium 0 µM)	drug sensitivity score (T-47D [21]; 4-OH-tamoxifen in medium 1 µM)	drug sensitivity score (ZR-75-1 Tam2 [22])
191	187	371	394	313	331	123	309	349	97.4	329	CC(=O)[C@]1(O)Cc2c(O)c3c(c(O)c2[C@@H](O[C@H]2C[C@H](N)[C@H](O)[C@H](C)O2)C1)C(=O)c1ccccc1C3=O [Idarubicin]	120	111	127	86	6.65	5.56	3.03	6.29	5.81	3.94	2.4	1.86	5.45	8.94	4.38	4.91	8.26	3.11	7.63
48.4	130	399	378	227	147	39.9	60.7	267	61.1	423	COc1ccc(-c2ccc3c(N4CCOC[C@@H]4C)nc(N4CCOC[C@@H]4C)nc3n2)cc1CO [AZD8055]	31.3	12.3	38.9	18.5	20.2	11.5	8.38	18.4	17.4	12.7	10.2	6.06	16.2	17.1	11.8	13.6	16.7	8.08	19.8
123	146	303	154	212	226	117	137	170	199	390	Cc1c(CN2CCN(C(=O)[C@H](C)O)CC2)sc2c(N3CCOCC3)nc(-c3cnc(N)nc3)nc12 [GDC-0980]	86.5	145	178	160	17.4	15.9	15.1	16.5	11.8	18.3	12.4	9.79	13.5	15.3	13.5	18.4	14.7	12.1	14.9
19.7	15.8	15.3	4.59	33.4	74.6	11.4	25.6	3.67	8.82	2.82	CC(C)C[C@H](NC(=O)[C@H](CCc1ccccc1)NC(=O)CN1CCOCC1)C(=O)N[C@@H](Cc1ccccc1)C(=O)N[C@@H](CC(C)C)C(=O)[C@@]1(C)CO1 [Carfilzomib]	31.7	24.7	47.1	51.9	17.9	21	20.8	14	16.4	27.9	17.1	12.4	12.8	22.7	14.6	28.9	23.1	25.8	11.8
> 100000	–	> 100000	> 100000	> 100000	> 100000	> 100000	> 100000	–	> 100000	> 100000	CS(=O)(=O)OCCCCOS(C)(=O)=O [Busulfan]	> 100000	> 100000	> 100000	> 100000	0	0.0038	0	0	0	0	0	0	0	0	0	0	0	0	0

Compound	relative IC50 (MCF-7 [1]; 4-OH-tamoxifen in medium 0 µM) [nM]	relative IC50 (MCF-7 [1]; 4-OH-tamoxifen in medium 1 µM) [nM]	relative IC50 (BT-474 Tam2 [2]) [nM]	relative IC50 (BT-474 Tam1 [4]) [nM]	relative IC50 (T-47D Tam2 [5]) [nM]	relative IC50 (MCF-7 Tam1 [6]) [nM]	relative IC50 (T-47D Tam1 [8]) [nM]	relative IC50 (BT-474 [9]; 4-OH-tamoxifen in medium 0 µM) [nM]	relative IC50 (BT-474 [9]; 4-OH-tamoxifen in medium 1 µM) [nM]	relative IC50 (T-47D [10]; 4-OH-tamoxifen in medium 0 µM) [nM]	relative IC50 (T-47D [10]; 4-OH-tamoxifen in medium 1 µM) [nM]	relative IC50 (ZR-75-1 [3]; 4-OH-tamoxifen in medium 0 µM) [nM]	relative IC50 (ZR-75-1 [3]; 4-OH-tamoxifen in medium 1 µM) [nM]	relative IC50 (ZR-75-1 Tam1 [7]) [nM]	relative IC50 (ZR-75-1 Tam2 [11]) [nM]	drug sensitivity score (MCF-7 [12]; 4-OH-tamoxifen in medium 0 µM)	drug sensitivity score (MCF-7 [12]; 4-OH-tamoxifen in medium 1 µM)	drug sensitivity score (BT-474 Tam2 [13])	drug sensitivity score (ZR-75-1 [14]; 4-OH-tamoxifen in medium 0 µM)	drug sensitivity score (ZR-75-1 [14]; 4-OH-tamoxifen in medium 1 µM)	drug sensitivity score (BT-474 Tam1 [15])	drug sensitivity score (T-47D Tam2 [16])	drug sensitivity score (MCF-7 Tam1 [17])	drug sensitivity score (ZR-75-1 Tam1 [18])	drug sensitivity score (T-47D Tam1 [19])	drug sensitivity score (BT-474 [20]; 4-OH-tamoxifen in medium 0 µM)	drug sensitivity score (BT-474 [20]; 4-OH-tamoxifen in medium 1 µM)	drug sensitivity score (T-47D [21]; 4-OH-tamoxifen in medium 0 µM)	drug sensitivity score (T-47D [21]; 4-OH-tamoxifen in medium 1 µM)	drug sensitivity score (ZR-75-1 Tam2 [22])
N.N.[Cl][Pt][Cl] [Cisplatin]	> 10000	> 10000	> 10000	> 10000	> 10000	> 10000	> 10000	> 10000	> 10000	> 10000	> 10000	> 10000	> 10000	> 10000	> 10000	0	0	0	0	0	0	0	0	0	0	0	0	0	0	0
CCc1c(C(=O)C(N)=O)c2c(OCC(=O)O)cccc2n1Cc1ccccc1 [Varespladib]	–	> 10000	> 10000	> 10000	> 10000	> 10000	> 10000	> 10000	> 10000	> 10000	> 10000	> 10000	> 10000	> 10000	> 10000	0.0495	0	0	0	0	0	0	0	0	0	0	0	0	0	0
